Measured values reported in publication PMC6522372 (Nature chemical biology, 2019).
Numbering of substitutions follows the chain as printed. Numbers in names are those of the source.

Columns and labels:
[1] = biological target: T1, McsB (Geobacillus stearothermophilus, UniProt P0DMM5); assay: SPR, steady-state; assay type: binding
T1 sequence (P0DMM5 1-363): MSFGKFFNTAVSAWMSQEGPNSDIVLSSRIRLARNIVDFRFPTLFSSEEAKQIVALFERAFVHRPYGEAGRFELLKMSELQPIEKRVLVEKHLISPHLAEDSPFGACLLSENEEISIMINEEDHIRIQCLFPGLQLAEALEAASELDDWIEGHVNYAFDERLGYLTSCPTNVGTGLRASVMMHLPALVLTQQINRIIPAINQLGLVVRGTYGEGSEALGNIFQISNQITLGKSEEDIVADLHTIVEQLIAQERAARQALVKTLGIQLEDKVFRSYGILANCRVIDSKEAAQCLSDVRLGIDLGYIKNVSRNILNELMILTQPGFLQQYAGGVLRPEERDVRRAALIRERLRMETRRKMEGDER

[2] = biological target: T2, McsB (Geobacillus stearothermophilus, UniProt P0DMM5); assay: X-ray crystal structure; assay type: binding
T2 sequence (P0DMM5 1-355): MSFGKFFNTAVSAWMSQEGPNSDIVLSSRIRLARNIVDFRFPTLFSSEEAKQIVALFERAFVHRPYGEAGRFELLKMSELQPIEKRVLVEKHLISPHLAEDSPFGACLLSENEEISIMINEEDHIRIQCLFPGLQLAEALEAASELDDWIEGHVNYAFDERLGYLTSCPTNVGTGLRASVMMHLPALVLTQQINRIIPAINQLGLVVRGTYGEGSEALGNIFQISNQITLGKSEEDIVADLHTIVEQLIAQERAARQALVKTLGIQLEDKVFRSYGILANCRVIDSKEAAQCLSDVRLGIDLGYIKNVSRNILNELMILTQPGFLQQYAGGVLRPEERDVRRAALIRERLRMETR

[3] = biological target: the molecule itself; assay: SEC-MALS

Nc1ncnc2c1ncn2[C@@H]1O[C@H](COP(=O)(O)OP(=O)(O)O)[C@@H](O)[C@H]1O [ADP]
Kd [1]: 208 ± 60 µM

Nc1ncnc2c1ncn2[C@@H]1O[C@H](COP(=O)(O)OP(N)(=O)O)[C@@H](O)[C@H]1O [AMP-PN]
X-ray crystal structure (soak with AMP-PNP, hydrolysed to AMP-PN) [2]: the Mg⋅ATP-binding site shows a clear electron density for AMP-PN

Nc1ncnc2c1ncn2[C@@H]1O[C@H](COP(=O)(O)OP(=O)(O)OP(=O)(O)O)[C@@H](O)[C@H]1O [ATP]
Kd [1]: 262 ± 27 µM

B1: full-length McsB R338A/D339A (enzyme)
chain: T1 sequence (P0DMM5 1-363) with R338A, D339A
stoichiometry N [3]: 2
